Measurements taken from PMC3268193 (British Journal of Pharmacology, 2012).
Residue numbers refer to the chain shown, from its start.

What was measured:
[1] = molecular target: T1, P2X1 receptor mutant R139M (Homo sapiens, UniProt P51575, R139M); assay: Two-electrode voltage clamp, P2X1 mutant R139M; assay type: cell-based
T1 sequence (P51575 1-399 R139M): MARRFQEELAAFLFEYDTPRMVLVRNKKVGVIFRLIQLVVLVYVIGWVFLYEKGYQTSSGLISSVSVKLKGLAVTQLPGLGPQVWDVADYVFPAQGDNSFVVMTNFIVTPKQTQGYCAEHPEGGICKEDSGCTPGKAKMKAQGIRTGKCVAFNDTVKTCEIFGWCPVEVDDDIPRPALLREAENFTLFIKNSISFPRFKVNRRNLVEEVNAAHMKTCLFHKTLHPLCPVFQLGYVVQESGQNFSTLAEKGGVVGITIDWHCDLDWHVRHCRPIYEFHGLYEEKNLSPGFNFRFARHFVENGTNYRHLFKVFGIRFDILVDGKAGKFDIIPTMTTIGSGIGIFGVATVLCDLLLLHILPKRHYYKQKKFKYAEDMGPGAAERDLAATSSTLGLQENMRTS

P2X1 Cys2(1-3) chimera = molecular target: T2, P2X1 Cys2(1-3) chimera (Homo sapiens, UniProt P51575, A118P/DEL120-123/E128S/G124S/G131D/INS125RVHNAT/K127L/S130A); assay: Two-electrode voltage clamp, chimera P2X1 Cys2; assay type: cell-based
T2 sequence (P51575 with tags, fused parts or gaps A118P/DEL120-123/G124S/INS125RVHNAT/K127L/E128S/S130A/G131D): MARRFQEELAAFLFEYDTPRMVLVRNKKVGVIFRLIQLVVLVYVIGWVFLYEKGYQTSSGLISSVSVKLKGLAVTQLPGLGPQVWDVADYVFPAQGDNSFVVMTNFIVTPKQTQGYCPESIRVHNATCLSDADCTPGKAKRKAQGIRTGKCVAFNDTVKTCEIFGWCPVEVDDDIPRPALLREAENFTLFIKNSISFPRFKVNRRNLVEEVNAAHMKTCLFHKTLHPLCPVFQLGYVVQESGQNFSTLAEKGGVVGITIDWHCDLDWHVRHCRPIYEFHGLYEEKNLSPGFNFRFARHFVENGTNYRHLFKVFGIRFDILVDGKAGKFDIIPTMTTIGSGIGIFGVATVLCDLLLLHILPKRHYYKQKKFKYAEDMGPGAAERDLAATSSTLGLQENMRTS

[2] = molecular target: T3, P2X1 receptor mutant KAKRK → EADRK(2) (Homo sapiens, UniProt P51575, K136E/K138D); assay: Two-electrode voltage clamp, P2X1 mutant X1-EADRK; assay type: cell-based
T3 sequence (P51575 1-399 K136E/K138D): T1 sequence (P51575 1-399 R139M) with K136E, K138D, M139R

[3] = molecular target: T4, P2X1 receptor mutant K138D (Homo sapiens, UniProt P51575, K138D); assay: Two-electrode voltage clamp, P2X1 mutant K138D; assay type: cell-based
T4 sequence (P51575 1-399 K138D): T1 sequence (P51575 1-399 R139M) with K138D, M139R

P2X1 Cys2(3-4) chimera = molecular target: T5, P2X1 Cys2(3-4) chimera (Homo sapiens, UniProt P51575, A137L/A141G/I144L/K136E/K138D/K140L/K148R/P134A/Q142N/R139M/T133V); assay: Two-electrode voltage clamp, chimera P2X1 Cys2; assay type: cell-based
T5 sequence (P51575 1-399 T133V/P134A/K136E/A137L/K138D/R139M/K140L/A141G/Q142N/I144L/K148R): T1 sequence (P51575 1-399 R139M) with T133V, P134A, K136E, A137L, K138D, K140L, A141G, Q142N, I144L, K148R

P2X7 receptor = details: ref Fonfria et al., 2008; cited from earlier work
[4] = molecular target: T6, P2X2 receptor mutant X2-KLKML(2) (E134KD136K) (Homo sapiens, UniProt Q9UBL9, D148K/E146K); assay: Two-electrode voltage clamp, P2X2 mutant X2-KLKML; assay type: cell-based; details: double mutation E134KD136K
T6 sequence (Q9UBL9 1-471 E146K/D148K): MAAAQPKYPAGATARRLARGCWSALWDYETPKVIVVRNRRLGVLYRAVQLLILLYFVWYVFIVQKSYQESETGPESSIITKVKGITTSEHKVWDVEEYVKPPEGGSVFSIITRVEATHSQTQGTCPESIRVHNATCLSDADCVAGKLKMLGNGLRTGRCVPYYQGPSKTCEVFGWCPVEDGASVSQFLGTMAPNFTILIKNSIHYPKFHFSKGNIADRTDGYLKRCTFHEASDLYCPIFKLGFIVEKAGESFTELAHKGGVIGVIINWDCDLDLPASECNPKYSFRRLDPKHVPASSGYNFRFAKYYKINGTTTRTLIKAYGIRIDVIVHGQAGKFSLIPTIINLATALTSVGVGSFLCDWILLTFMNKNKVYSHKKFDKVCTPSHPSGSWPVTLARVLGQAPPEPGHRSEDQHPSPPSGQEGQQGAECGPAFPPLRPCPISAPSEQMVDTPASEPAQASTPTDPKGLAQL

| Reduction of ATP-evoked current ([1]; 1 nM antagonist, EC90 ATP (10 µM)) | Reduction in NF449 sensitivity compared with P2X1 WT (P2X1 Cys2(1-3) chimera) | Extra decrease in NF449 sensitivity compared with the K138D mutant [2] | Reduction in NF449 sensitivity compared with P2X1 WT [3] | Decrease in NF449 sensitivity compared with P2X1 WT (P2X1 Cys2(3-4) chimera) | Effect of mutation on suramin sensitivity [1] | Increase in suramin sensitivity compared with WT P2X1 (P2X1 Cys2(1-3) chimera) | Increase in suramin sensitivity compared with WT P2X2 [4] | SMILES | Effectiveness at guinea pig compared with rat and human P2X7 isoforms (P2X7 receptor) |
| --- | --- | --- | --- | --- | --- | --- | --- | --- | --- |
| 40–70% | ~20 fold | ~15 fold | ~10 fold | ~1700 fold | – | – | – | O=C(Nc1cc(C(=O)Nc2ccc(S(=O)(=O)O)cc2S(=O)(=O)O)cc(C(=O)Nc2ccc(S(=O)(=O)O)cc2S(=O)(=O)O)c1)Nc1cc(C(=O)Nc2ccc(S(=O)(=O)O)cc2S(=O)(=O)O)cc(C(=O)Nc2ccc(S(=O)(=O)O)cc2S(=O)(=O)O)c1 [NF449, 4,4′,4′′,4′′′-(carbonylbis(imino-5,1,3-benzenetriyl-bis(carbonylimino)))tetrakis-benzene-1,3-disulphonic acid] | – |
| – | – | – | – | – | no effect | 15 fold | 10 fold | Cc1ccc(C(=O)Nc2ccc(S(=O)(=O)O)c3cc(S(=O)(=O)O)cc(S(=O)(=O)O)c23)cc1NC(=O)c1cccc(NC(=O)Nc2cccc(C(=O)Nc3cc(C(=O)Nc4ccc(S(=O)(=O)O)c5cc(S(=O)(=O)O)cc(S(=O)(=O)O)c45)ccc3C)c2)c1 [suramin] | ~10 fold |
